PubChem BioAssay AID248 (DTP/NCI, 2004)
Several values for one entry are separate records, joined by “and”; a condition that tells them apart may be missing. Equal values may be shown once. Inconclusive results and toxic doses are left out. Rule as the data show it: active = T/C of 150% or more; inactive = T/C below 125%.

Test system: L1210 leukemia ip in BDF1 mice, survival T/C
Assay: NCI In Vivo Anticancer Drug Screen. Data for tumor model L1210 Leukemia (intraperitoneal) in B6D2F1 (BDF1) mice
Conditions: endpoint: mean survival time, higher = longer survival
Method in brief: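 Ratio derived from survival: compound-dosed mice over vehicle-dosed mice, all bearing a transplantable tumor.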

[1] = dose: 100.0 mg/kg/injection, schedule: Q01DX001 (ip), vehicle: carboxymethylcellulose (CMC)
[2] = dose: 200.0 mg/kg/injection, schedule: Q01DX001 (ip), vehicle: carboxymethylcellulose (CMC)
[3] = dose: 400.0 mg/kg/injection, schedule: Q01DX001 (ip), vehicle: carboxymethylcellulose (CMC)
[4] = dose: 100.0 mg/kg/injection, schedule: Q01DX001 (ip), vehicle: saline
[5] = dose: 200.0 mg/kg/injection, schedule: Q01DX001 (ip), vehicle: saline
[6] = dose: 400.0 mg/kg/injection, schedule: Q01DX001 (ip), vehicle: saline
[7] = dose: 100.0 mg/kg/injection, schedule: Q01DX001 (ip), vehicle: saline with Tween-80
[8] = dose: 100.0 mg/kg/injection, schedule: Q01DX009 (ip), vehicle: saline with Tween-80
[9] = dose: 100.0 mg/kg/injection, schedule: Q04DX002 (ip), vehicle: saline with Tween-80
[10] = dose: 100.0 mg/kg/injection, schedule: Q04DX003 (ip), vehicle: saline with Tween-80
[11] = dose: 200.0 mg/kg/injection, schedule: Q01DX001 (ip), vehicle: saline with Tween-80
[12] = dose: 200.0 mg/kg/injection, schedule: Q01DX009 (ip), vehicle: saline with Tween-80
[13] = dose: 200.0 mg/kg/injection, schedule: Q04DX002 (ip), vehicle: saline with Tween-80
[14] = dose: 400.0 mg/kg/injection, schedule: Q01DX009 (ip), vehicle: saline with Tween-80
[15] = dose: 400.0 mg/kg/injection, schedule: Q04DX002 (ip), vehicle: saline with Tween-80
[16] = dose: 400.0 mg/kg/injection, schedule: Q04DX003 (ip), vehicle: saline with Tween-80
[17] = dose: 200.0 mg/kg/injection, schedule: Q04DX003 (ip), vehicle: saline with Tween-80
[18] = dose: 25.0 mg/kg/injection, schedule: Q04DX002 (ip), vehicle: saline with Tween-80
[19] = dose: 50.0 mg/kg/injection, schedule: Q04DX002 (ip), vehicle: saline with Tween-80
[20] = dose: 100.0 mg/kg/injection, schedule: Q01DX009 (ip), vehicle: Klucel (hydroxypropylcellulose) (HPC)
[21] = dose: 100.0 mg/kg/injection, schedule: Q04DX002 (ip), vehicle: Klucel (hydroxypropylcellulose) (HPC)
[22] = dose: 200.0 mg/kg/injection, schedule: Q01DX009 (ip), vehicle: Klucel (hydroxypropylcellulose) (HPC)
[23] = dose: 400.0 mg/kg/injection, schedule: Q01DX009 (ip), vehicle: Klucel (hydroxypropylcellulose) (HPC)
[24] = dose: 25.0 mg/kg/injection, schedule: Q04DX003 (ip), vehicle: Klucel (hydroxypropylcellulose) (HPC)
[25] = dose: 50.0 mg/kg/injection, schedule: Q04DX003 (ip), vehicle: Klucel (hydroxypropylcellulose) (HPC)
[26] = dose: 100.0 mg/kg/injection, schedule: Q04DX003 (ip), vehicle: Klucel (hydroxypropylcellulose) (HPC)

Measured: T/C

CN(C1=CC(=O)C(=O)c2ccccc21)c1ccccc1
inactive: dose: 50.0 mg/kg/injection, schedule: Q01DX001 (ip), vehicle: Klucel (hydroxypropylcellulose) (HPC) 95 % of control | dose: 100.0 mg/kg/injection, schedule: Q01DX001 (ip), vehicle: Klucel (hydroxypropylcellulose) (HPC) 97 % of control | dose: 200.0 mg/kg/injection, schedule: Q01DX001 (ip), vehicle: Klucel (hydroxypropylcellulose) (HPC) 97 % of control

OC1(c2ccccc2)CC2CC1c1ccccc12 (configuration not stated)
inactive: [1] 111 % of control | [2] 93 % of control | [3] 90 % of control

O=C(OC1COC(Br)C(OC(=O)c2ccc([N+](=O)[O-])cc2)C1OC(=O)c1ccc([N+](=O)[O-])cc1)c1ccc([N+](=O)[O-])cc1 (configuration not stated)
inactive: [4] 98 % of control | [5] 96 % of control | [6] 91 % of control

Cc1ccc(Cl)cc1NC(=O)Nc1cc(Cl)c(Cl)cc1C
inactive: dose: 50.0 mg/kg/injection, schedule: Q04DX003 (ip), vehicle: saline with Tween-80 94 % of control and 88 % of control | [7] 100 % of control | [8] 95 % of control and 97 % of control | [9] 95 % of control and 106 % of control | [10] 96 % of control | [11] 86 % of control | [12] 93 % of control and 97 % of control | [13] 97 % of control and 88 % of control | dose: 400.0 mg/kg/injection, schedule: Q01DX001 (ip), vehicle: saline with Tween-80 89 % of control | [14] 98 % of control and 105 % of control | [15] 101 % of control and 92 % of control | [16] 95 % of control and 88 % of control

CCCCCCCCOC(=O)COc1cccc(C)c1
inactive: [9] 103 % of control | [13] 100 % of control | [15] 100 % of control

O=C(Nc1ccccc1C(F)(F)F)c1ccc(Cl)cc1Cl
inactive: [8] 91 % of control | [10] 94 % of control | [12] 96 % of control | [17] 92 % of control | [14] 89 % of control | [16] 95 % of control

OCCOc1ccc(Cl)cc1
inactive: [8] 98 % of control | [12] 110 % of control | [14] 102 % of control

O=[N+]([O-])C=C([SH2+])[SH2+].O=[N+]([O-])C=C([SH2+])[SH2+].[Co+3].c1ccc(C[P+](c2ccccc2)(c2ccccc2)c2ccccc2)cc1
inactive: dose: 75.0 mg/kg/injection, schedule: Q04DX003 (ip), vehicle: saline 93 % of control | dose: 150.0 mg/kg/injection, schedule: Q04DX003 (ip), vehicle: saline 93 % of control

CN(C)CCC(C=O)(CCN(C)C)c1cccc2ccccc12
inactive: [18] 116 % of control | [19] 94 % of control | [9] 94 % of control

CCCCS(=O)(=O)Cc1ccccc1
inactive: [20] 98 % of control | [21] 100 % of control | [22] 103 % of control | dose: 200.0 mg/kg/injection, schedule: Q04DX002 (ip), vehicle: Klucel (hydroxypropylcellulose) (HPC) 96 % of control | [23] 98 % of control | dose: 400.0 mg/kg/injection, schedule: Q04DX002 (ip), vehicle: Klucel (hydroxypropylcellulose) (HPC) 93 % of control

COc1ccccc1/C=C/C(=O)O
inactive: dose: 25.0 mg/kg/injection, schedule: Q04DX002 (ip), vehicle: Klucel (hydroxypropylcellulose) (HPC) 98 % of control | dose: 50.0 mg/kg/injection, schedule: Q04DX002 (ip), vehicle: Klucel (hydroxypropylcellulose) (HPC) 100 % of control | [21] 88 % of control

OC1CCCC23CCC12CC3 (configuration not stated)
inactive: dose: 50.0 mg/kg/injection, schedule: Q01DX001 (ip), vehicle: saline with Tween-80 101 % of control | [7] 99 % of control | [11] 96 % of control

CCC/C(=N\Nc1ccc([N+](=O)[O-])cc1[N+](=O)[O-])c1ccccc1
inactive: [10] 91 % of control | [16] 86 % of control

OC1c2cc(Cl)ccc2-c2c(N=Cc3ccc4c(c3)OCO4)cc(Cl)cc21 (configuration not stated)
inactive: [1] 90 % of control | [2] 90 % of control | [3] 93 % of control

C[n+]1ccc(/C=C/c2ccc(Cl)c(Cl)c2)c2ccccc21
inactive: dose: 12.5 mg/kg/injection, schedule: Q04DX003 (ip), vehicle: Klucel (hydroxypropylcellulose) (HPC) 98 % of control | [24] 100 % of control | [25] 96 % of control

CCOc1ccccc1C(=O)Nc1ccc(Br)cc1
inactive: dose: 50.0 mg/kg/injection, schedule: Q01DX001 (ip), vehicle: carboxymethylcellulose (CMC) 91 % of control | [1] 91 % of control | [2] 96 % of control | [3] 102 % of control

Cc1ccc(S(=O)(=O)Nc2ccccc2N=Cc2ccc([N+](=O)[O-])cc2[N+](=O)[O-])cc1
inactive: dose: 75.0 mg/kg/injection, schedule: Q01DX001 (ip), vehicle: carboxymethylcellulose (CMC) 97 % of control | dose: 150.0 mg/kg/injection, schedule: Q01DX001 (ip), vehicle: carboxymethylcellulose (CMC) 104 % of control | dose: 300.0 mg/kg/injection, schedule: Q01DX001 (ip), vehicle: carboxymethylcellulose (CMC) 92 % of control

O=C(O)/C(=C/c1ccccc1)c1ccccc1
inactive: [9] 95 % of control and 96 % of control | [13] 96 % of control and 88 % of control

Cc1nc(Cl)cc(Cl)c1C
inactive: dose: 100.0 mg/kg/injection, schedule: Q04DX003 (ip), vehicle: other 106 % of control | dose: 178.0 mg/kg/injection, schedule: Q04DX003 (ip), vehicle: other 103 % of control | dose: 200.0 mg/kg/injection, schedule: Q04DX003 (ip), vehicle: other 104 % of control | dose: 266.0 mg/kg/injection, schedule: Q04DX003 (ip), vehicle: other 103 % of control | dose: 400.0 mg/kg/injection, schedule: Q04DX003 (ip), vehicle: other 89 % of control

C[Si](C)(C)c1cc(F)c(F)c(F)c1F
inactive: [20] 100 % of control | [26] 97 % of control | [22] 102 % of control | dose: 200.0 mg/kg/injection, schedule: Q04DX003 (ip), vehicle: Klucel (hydroxypropylcellulose) (HPC) 102 % of control | [23] 98 % of control | dose: 400.0 mg/kg/injection, schedule: Q04DX003 (ip), vehicle: Klucel (hydroxypropylcellulose) (HPC) 103 % of control

CCP(=O)(CCP(=O)(c1ccccc1)c1ccccc1)c1ccccc1 (configuration not stated)
inactive: [18] 97 % of control | [19] 103 % of control | [9] 106 % of control

Nc1n[nH]c(=S)n1-c1ccc(Cl)cc1
inactive: [10] 88 % of control | [17] 93 % of control | [16] 93 % of control

Cc1cc(N=[N+]([O-])c2ccc(N)c(C)c2)ccc1N
inactive: [4] 95 % of control | [5] 91 % of control | dose: 200.0 mg/kg/injection, schedule: Q01DX009 (ip), vehicle: saline 96 % of control | [6] 93 % of control | dose: 400.0 mg/kg/injection, schedule: Q01DX009 (ip), vehicle: saline 96 % of control

COc1cccc(/C(C)=C2\SC(=S)NC2=O)c1
inactive: [1] 100 % of control | [2] 94 % of control

CCOC(=O)Nc1cc(Nc2ccc(Cl)cc2)c2ncc(C)nc2n1
inactive: [24] 102 % of control | [25] 102 % of control | [26] 96 % of control

Cc1cc(C)c(C(=O)/C=C(\N)C(=O)c2c(C)cc(C)cc2C)c(C)c1
inactive: dose: 50.0 mg/kg/injection, schedule: Q04DX003 (ip), vehicle: carboxymethylcellulose (CMC) 110 % of control | dose: 100.0 mg/kg/injection, schedule: Q04DX003 (ip), vehicle: carboxymethylcellulose (CMC) 98 % of control | dose: 200.0 mg/kg/injection, schedule: Q04DX003 (ip), vehicle: carboxymethylcellulose (CMC) 104 % of control
